# Assay results as given in patent publication US6737383B1, “Herbicidal oxadiazolidines” (priority 1999, dated 2004).
# Assays:
# rice = experiment: Test B flood test rice; type: in vivo, Oryza sativa
# In short: (§1)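 Read-out is a visual response score from 0 (no effect) to 10 (complete control), assigned by comparison with untreated controls. Treatment was applied at the 2-leaf stage, and plants stayed in the greenhouse for twelve to sixteen days before scoring.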
# pigweed = experiment: Test B pre/postemergence pigweed; type: in vivo, Amaranthus retroflexus
# In short: (§2)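 Response is a visual 0-to-10 score relative to untreated plants, where 0 means no effect and 10 means complete control, taken twelve to sixteen days after application. Treatments went onto soil at planting and onto foliage of 1- to 4-leaf plants, using a surfactant-containing non-phytotoxic solvent.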
# smallflower flatsedge = experiment: Test B flood test smallflower flatsedge; type: in vivo, Cyperus difformis
# In short: as §1
# velvetleaf = experiment: Test B pre/postemergence velvetleaf; type: in vivo, Abutilon theophrasti
# In short: as §2
# giant foxtail = experiment: Test B pre/postemergence giant foxtail; type: in vivo, Setaria faberii
# In short: as §2
# cocklebur = experiment: Test B pre/postemergence cocklebur; type: in vivo, Xanthium strumarium
# In short: as §2
# morningglory = experiment: Test B pre/postemergence morningglory; type: in vivo, Ipomoea hederacea
# In short: as §2
# sugar beet = experiment: Test B pre/postemergence sugar beet; type: in vivo, Beta vulgaris
# In short: as §2
# purple nutsedge = experiment: Test B pre/postemergence purple nutsedge; type: in vivo, Cyperus rotundus
# In short: as §2
# wild oat = experiment: Test B pre/postemergence wild oat; type: in vivo, Avena fatua
# In short: as §2
# bamyardgrass = experiment: Test B flood test barnyardgrass; type: in vivo, Echinochloa crus-galli
# In short: as §1
# crabgrass = experiment: Test B pre/postemergence crabgrass; type: in vivo, Digitaria sanguinalis
# In short: as §2
# duck salad = experiment: Test B flood test duck salad; type: in vivo, Heteranthera limosa
# In short: as §1
# wheat = experiment: Test B pre/postemergence wheat; type: in vivo, Triticum aestivum
# In short: as §2
# bedstraw = experiment: Test B pre/postemergence bedstraw; type: in vivo, Galium aparine; conditions: Preemergence; for Bedstraw plant response rating: scale 0 to 10, 0 is no effect, 10 is complete control
# In short: as §2
# corn = experiment: Test B pre/postemergence corn; type: in vivo, Zea mays
# In short: as §2
# surinam grass = experiment: Test B pre/postemergence surinam grass; type: in vivo, Brachiaria decumbens
# In short: as §2
# rape = experiment: Test B pre/postemergence rape; type: in vivo, Brassica napus
# In short: as §2
# soybean = experiment: Test B pre/postemergence soybean; type: in vivo, Glycine max
# In short: as §2
# blackgrass = experiment: Test B pre/postemergence blackgrass; type: in vivo, Alopecurus myosuroides
# In short: as §2
# [1] = Rate 62 g/ha, flood test species, Pre-emergence, visual evaluation after twelve to sixteen days
# [2] = Rate 125 g/ha, under heading Pre-emergence, flood test species, visual evaluation after twelve to sixteen days
# [3] = Rate 250 g/ha, Pre-emergence (flood test species), scale 0 to 10, 0 is no effect, 10 is complete control
# [4] = Rate 500 g/ha, Pre-emergence section of Table B, 0 to 10 scale (0 no effect, 10 complete control)
# [5] = Postemergence, Rate 125 g/ha, scale 0 to 10, 0 is no effect, 10 is complete control
# [6] = Postemergence, Rate 500 g/ha, scale 0 to 10, 0 is no effect, 10 is complete control
# [7] = Preemergence, Rate 62 g/ha, scale of 0 to 10 where 0 is no effect and 10 is complete control
# [8] = Preemergence, Rate 125 g/ha, scale 0 to 10, 0 is no effect, 10 is complete control
# [9] = Preemergence, Rate 500 g/ha, scale 0 to 10, 0 is no effect, 10 is complete control
# [10] = Rate 62 g/ha, Postemergence, scale 0 to 10 (0 no effect, 10 complete control)
# [11] = Postemergence, Rate 250 g/ha, scale 0 to 10
# [12] = Preemergence, Rate 250 g/ha, scale 0 to 10, 0 is no effect, 10 is complete control
compound,measurement,setting,value
CC(C)N(C(=O)n1oc(=O)n(CCNC(=O)CCl)c1=O)c1ccccc1 [Compound 492],"Plant response rating, Rice (0 to 10 scale, 0 is no effect, 10 is complete control)",rice; [1],0
same,"Rice plant response rating (0 to 10 scale, 0 is no effect, 10 is complete control)",rice; [2],0
same,Rice plant response rating,rice; [3],0
same,Rice plant response rating,rice; [4],0
same,Redroot pigweed plant response rating,pigweed; [5],0
same,"Plant response rating, Redroot pigweed",pigweed; [6],7
same,"Plant response rating, Redroot pigweed",pigweed; [7],0
same,Redroot pigweed plant response rating,pigweed; [8],0
same,Redroot pigweed plant response rating,pigweed; [9],0
same,Redroot pigweed plant response rating,pigweed; [10],0
same,"Plant response rating, S. Flatsedge (0 to 10 scale, 0 is no effect, 10 is complete control)",smallflower flatsedge; [1],0
same,"S. Flatsedge plant response rating (0 to 10 scale, 0 is no effect, 10 is complete control)",smallflower flatsedge; [2],0
same,S. Flatsedge plant response rating,smallflower flatsedge; [3],0
same,S. Flatsedge plant response rating,smallflower flatsedge; [4],0
same,Velvetleaf plant response rating,velvetleaf; [5],0
same,"Plant response rating, Velvetleaf",velvetleaf; [6],0
same,"Plant response rating, Velvetleaf",velvetleaf; [7],0
same,Velvetleaf plant response rating,velvetleaf; [8],0
same,Velvetleaf plant response rating,velvetleaf; [9],4
same,Velvetleaf plant response rating,velvetleaf; [10],0
same,Giant foxtail plant response rating,giant foxtail; [5],0
same,"Plant response rating, Giant foxtail",giant foxtail; [6],0
same,"Plant response rating, Giant foxtail",giant foxtail; [7],2
same,Giant foxtail plant response rating,giant foxtail; [8],0
same,Giant foxtail plant response rating,giant foxtail; [9],9
same,Giant foxtail plant response rating,giant foxtail; [10],0
same,Cocklebur plant response rating,cocklebur; [5],0
same,Cocklebur plant response rating,cocklebur; [11],0
same,"Plant response rating, Cocklebur",cocklebur; [6],0
same,"Plant response rating, Cocklebur",cocklebur; [7],0
same,Cocklebur plant response rating,cocklebur; [8],0
same,Cocklebur plant response rating,cocklebur; [12],0
same,Cocklebur plant response rating,cocklebur; [9],0
same,Cocklebur plant response rating,cocklebur; [10],0
same,Morningglory plant response rating,morningglory; [5],5
same,"Plant response rating, Morningglory",morningglory; [6],8
same,"Plant response rating, Morningglory",morningglory; [7],0
same,Morningglory plant response rating,morningglory; [8],0
same,Morningglory plant response rating,morningglory; [9],0
same,Morningglory plant response rating,morningglory; [10],0
same,Sugarbeets plant response rating,sugar beet; [5],0
same,"Plant response rating, Sugarbeets",sugar beet; [6],0
same,"Plant response rating, Sugarbeets",sugar beet; [7],0
same,Sugarbeets plant response rating,sugar beet; [8],0
same,Sugarbeets plant response rating,sugar beet; [9],0
same,Sugarbeets plant response rating,sugar beet; [10],0
same,Nutsedge plant response rating,purple nutsedge; [5],0
same,"Plant response rating, Nutsedge",purple nutsedge; [6],0
same,"Plant response rating, Nutsedge",purple nutsedge; [7],0
same,Nutsedge plant response rating,purple nutsedge; [8],0
same,Nutsedge plant response rating,purple nutsedge; [9],0
same,Nutsedge plant response rating,purple nutsedge; [10],0
same,Wild oats plant response rating,wild oat; [5],0
same,"Plant response rating, Wild oats",wild oat; [6],0
same,"Plant response rating, Wild oats",wild oat; [7],0
same,Wild oats plant response rating,wild oat; [8],0
same,Wild oats plant response rating,wild oat; [9],0
same,Wild oats plant response rating,wild oat; [10],0
same,"Plant response rating, Barnyardgrass (0 to 10 scale, 0 is no effect, 10 is complete control)",bamyardgrass; [1],0
same,"Barnyardgrass plant response rating (0 to 10 scale, 0 is no effect, 10 is complete control)",bamyardgrass; [2],0
same,Barnyardgrass plant response rating,bamyardgrass; [3],0
same,Barnyardgrass plant response rating,bamyardgrass; [4],0
same,Crabgrass plant response rating,crabgrass; [11],0
same,"Plant response rating, Crabgrass",crabgrass; [6],0
same,"Plant response rating, Crabgrass",crabgrass; [7],0
same,Crabgrass plant response rating,crabgrass; [8],0
same,Crabgrass plant response rating,crabgrass; [9],3
same,Crabgrass plant response rating,crabgrass; [10],0
same,"Plant response rating, Ducksalad (0 to 10 scale, 0 is no effect, 10 is complete control)",duck salad; [1],0
same,"Ducksalad plant response rating (0 to 10 scale, 0 is no effect, 10 is complete control)",duck salad; [2],0
same,Ducksalad plant response rating,duck salad; [3],0
same,Ducksalad plant response rating,duck salad; [4],0
same,Wheat plant response rating,wheat; [5],0
same,"Plant response rating, Wheat",wheat; [6],0
same,"Plant response rating, Wheat",wheat; [7],0
same,Wheat plant response rating,wheat; [8],0
same,Wheat plant response rating,wheat; [9],0
same,Wheat plant response rating,wheat; [10],0
same,"Plant response rating, Bedstraw","bedstraw; Rate 62 g/ha, scale of 0 to 10 where 0 is no effect and 10 is complete control",0
same,Bedstraw plant response rating,bedstraw; Rate 125 g/ha,0
same,Bedstraw plant response rating,bedstraw; Rate 250 g/ha,0
same,Bedstraw plant response rating,bedstraw; Rate 500 g/ha,0
same,Corn plant response rating,corn; [5],0
same,Corn plant response rating,corn; [11],0
same,"Plant response rating, Corn",corn; [6],0
same,"Plant response rating, Corn",corn; [7],0
same,Corn plant response rating,corn; [8],0
same,Corn plant response rating,corn; [9],0
same,Corn plant response rating,corn; [10],0
same,B. signalgrass plant response rating,surinam grass; [5],0
same,B. signalgrass plant response rating,"surinam grass; Postemergence, Rate 250 g/ha, scale 0 to 10, 0 no effect, 10 complete control",0
same,"Plant response rating, B. signalgrass",surinam grass; [6],0
same,"Plant response rating, B. signalgrass",surinam grass; [7],0
same,B. signalgrass plant response rating,surinam grass; [8],0
same,B. signalgrass plant response rating,surinam grass; [12],0
same,B. signalgrass plant response rating,surinam grass; [9],0
same,B. signalgrass plant response rating,surinam grass; [10],0
same,Rape plant response rating,rape; [5],0
same,"Plant response rating, Rape",rape; [6],0
same,"Plant response rating, Rape",rape; [7],0
same,Rape plant response rating,rape; [8],0
same,Rape plant response rating,rape; [9],0
same,Rape plant response rating,rape; [10],0
same,Soybean plant response rating,soybean; [5],0
same,"Plant response rating, Soybean",soybean; [6],0
same,"Plant response rating, Soybean",soybean; [7],0
same,Soybean plant response rating,soybean; [8],0
same,Soybean plant response rating,soybean; [9],0
same,Soybean plant response rating,soybean; [10],0
same,Blackgrass plant response rating,blackgrass; [5],0
same,Blackgrass plant response rating,blackgrass; [11],0
same,"Plant response rating, Blackgrass",blackgrass; [6],0
same,"Plant response rating, Blackgrass",blackgrass; [7],0
same,Blackgrass plant response rating,blackgrass; [8],0
same,Blackgrass plant response rating,blackgrass; [12],0
same,Blackgrass plant response rating,blackgrass; [9],0
same,Blackgrass plant response rating,blackgrass; [10],0
